Where a name gives a salt, the structure may show the parent alone. A value given as a limit tells only on which side of the number the result lay.

In the first test the target is T1, rat TRPV1 (Rattus norvegicus (Rat), UniProt O35433).
T1 sequence (O35433 whole entry): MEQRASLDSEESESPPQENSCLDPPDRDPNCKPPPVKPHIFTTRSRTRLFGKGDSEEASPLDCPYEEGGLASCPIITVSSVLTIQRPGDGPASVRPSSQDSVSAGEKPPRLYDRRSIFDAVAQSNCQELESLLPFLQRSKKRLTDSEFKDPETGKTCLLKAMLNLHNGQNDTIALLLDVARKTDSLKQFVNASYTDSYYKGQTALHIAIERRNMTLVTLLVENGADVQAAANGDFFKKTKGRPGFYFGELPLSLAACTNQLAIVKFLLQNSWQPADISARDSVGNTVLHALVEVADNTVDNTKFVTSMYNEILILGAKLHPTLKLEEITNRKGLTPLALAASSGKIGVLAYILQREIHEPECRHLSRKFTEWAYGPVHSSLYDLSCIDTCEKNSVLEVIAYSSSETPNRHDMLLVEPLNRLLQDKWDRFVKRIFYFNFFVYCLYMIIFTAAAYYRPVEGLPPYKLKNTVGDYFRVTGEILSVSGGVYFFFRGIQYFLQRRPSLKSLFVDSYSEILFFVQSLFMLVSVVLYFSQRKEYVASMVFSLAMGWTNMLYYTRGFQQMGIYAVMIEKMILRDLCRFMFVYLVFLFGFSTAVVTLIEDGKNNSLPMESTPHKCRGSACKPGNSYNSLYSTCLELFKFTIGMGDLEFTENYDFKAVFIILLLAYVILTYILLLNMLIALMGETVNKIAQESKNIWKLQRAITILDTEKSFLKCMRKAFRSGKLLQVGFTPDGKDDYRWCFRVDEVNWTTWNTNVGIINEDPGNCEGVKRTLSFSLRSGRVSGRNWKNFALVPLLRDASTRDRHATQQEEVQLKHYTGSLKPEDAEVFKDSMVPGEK
Assay: not given
To be noted: read-out: Rat IC50.
For the compound `CN1CCC(C)(C)c2ccc(Nc3nc(SC4CCCCC4)nc4c3CCN(c3ncccc3C(F)(F)F)CC4)cc21` [Example 371, 2-(Cyclohexylsulfanyl)-7-[3-(trifluoromethyl)pyridin-2-yl]-N-(1,4,4-trimethyl-1,2,3,4-tetrahydroquinolin-7-yl)-6,7,8,9-tetrahydro-5H-pyrimido[4,5-d]azepin-4-amine], the IC50 was more than 6670 nM.

`CC(C)Sc1nc2c(c(Nc3ccc4c(c3)N(C)CCC4(C)C)n1)CCN(c1ncccc1C(F)(F)F)CC2` [Example 372, 2-[(1-Methylethyl)sulfanyl]-7-[3-(trifluoromethyl)pyridin-2-yl]-N-(1,4,4-trimethyl-1,2,3,4-tetrahydroquinolin-7-yl)-6,7,8,9-tetrahydro-5H-pyrimido[4,5-d]azepin-4-amine]: the IC50 is 330 nM. Still for that read-out and setting: the value for `CC1OCCC1Sc1nc2c(c(Nc3ccc4c(c3)N(C)CCC4(C)C)n1)CCN(c1ncccc1C(F)(F)F)CC2` (stereo not drawn) [Example 374, 2,5-Anhydro-1,4-dideoxy-3-thio-3-S-{7-[3-(trifluoromethyl)pyridin-2-yl]-4-[(1,4,4-trimethyl-1,2,3,4-tetrahydroquinolin-7-yl)amino]-6,7,8,9-tetrahydro-5H-pyrimido[4,5-d]azepin-2-yl}pentitol] was 4 nM. Same read-out and setting: next, `CCCSc1nc2c(c(Nc3ccc(C(F)(F)F)cc3)n1)CCN(c1ncccc1C(F)(F)F)CC2` [Example 375, 2-(Propylsulfanyl)-N-[4-(trifluoromethyl)phenyl]-7-[3-(trifluoromethyl)pyridin-2-yl]-6,7,8,9-tetrahydro-5H-pyrimido[4,5-d]azepin-4-amine]: more than 6670 nM; `COC(=O)C(C)(C)c1ccc(Nc2nc(N3CCOCC3)nc3c2CCN(c2ncccc2C(F)(F)F)CC3)cc1` [Example 376, 2-Methyl-2-{4-[2-morpholin-4-yl-7-(3-trifluoromethyl-pyridin-2-yl)-6,7,8,9-tetrahydro-5H-pyrimido[4,5-d]azepin-4-ylamino]-phenyl}-propionic acid methyl ester]: 110 nM.

On to `CC(C)c1nc2c(c(Nc3ccc(N4CCCC4)cc3)n1)CCN(c1ncccc1C(F)(F)F)CC2` [Example 377, 2-(1-Methylethyl)-N-(4-pyrrolidin-1-ylphenyl)-7-[3-(trifluoromethyl)pyridin-2-yl]-6,7,8,9-tetrahydro-5H-pyrimido[4,5-d]azepin-4-amine], for which the IC50 stood at 1410 nM.

On to `CN(C)S(=O)(=O)c1ccc(Nc2nc(N3CCOCC3)nc3c2CCN(c2ncccc2C(F)(F)F)CC3)cc1` [Example 379, N,N-Dimethyl-4-({2-morpholin-4-yl-7-[3-(trifluoromethyl)pyridin-2-yl]-6,7,8,9-tetrahydro-5H-pyrimido[4,5-d]azepin-4-yl}amino)benzenesulfonamide], for which the concentration for half-maximal inhibition (IC50) worked out at 70 nM. The same measure, in the same setting: next, `CC(=O)c1ccc(Nc2nc(N3CCOCC3)nc3c2CCN(c2ncccc2C(F)(F)F)CC3)cc1` [Example 380, 1-[4-({2-Morpholin-4-yl-7-[3-(trifluoromethyl)pyridin-2-yl]-6,7,8,9-tetrahydro-5H-pyrimido[4,5-d]azepin-4-yl}amino)phenyl]ethanone]: 230 nM; `FC(F)(F)c1ccc(Nc2nc(N3CCOCC3)nc3c2CCN(c2ncccc2C(F)(F)F)CC3)cc1Cl` [Example 381, (3-Chloro-4-trifluoromethyl-phenyl)-[2-morpholin-4-yl-7-(3-trifluoromethyl-pyridin-2-yl)-6,7,8,9-tetrahydro-5H-pyrimido[4,5-d]azepin-4-yl]-amine]: 40 nM. As for `CC(C)(C#N)c1ccc(Nc2nc(N3CCOCC3)nc3c2CCN(c2ncccc2C(F)(F)F)CC3)cc1` [Example 382, 2-Methyl-2-{4-[2-morpholin-4-yl-7-(3-trifluoromethyl-pyridin-2-yl)-6,7,8,9-tetrahydro-5H-pyrimido[4,5-d]azepin-4-ylamino]-phenyl}-propionitrile], the IC50 was 40 nM. On the same count and under the same terms, next, `CC(C)(CO)c1ccc(Nc2nc(N3CCCCC3)nc3c2CCN(c2ncccc2C(F)(F)F)CC3)cc1` [Example 383, 2-Methyl-2-{4-[2-piperidin-1-yl-7-(3-trifluoromethyl-pyridin-2-yl)-6,7,8,9-tetrahydro-5H-pyrimido[4,5-d]azepin-4-ylamino]-phenyl}-propan-1-ol]: 160 nM; `CC(C)(C#N)c1ccc(Nc2nc(N3CCCCC3)nc3c2CCN(c2ncccc2C(F)(F)F)CC3)cc1` [Example 384, 2-Methyl-2-{4-[2-piperidin-1-yl-7-(3-trifluoromethyl-pyridin-2-yl)-6,7,8,9-tetrahydro-5H-pyrimido[4,5-d]azepin-4-ylamino]-phenyl}-propionitrile]: 40 nM.

`COC(=O)c1ccc(Nc2nc(N3CCCCC3)nc3c2CCN(c2ncccc2C(F)(F)F)CC3)cc1F` [Example 385, 2-Fluoro-4-[2-piperidin-1-yl-7-(3-trifluoromethyl-pyridin-2-yl)-6,7,8,9-tetrahydro-5H-pyrimido[4,5-d]azepin-4-ylamino]-benzoic acid methyl ester]: the IC50 was found to be 820 nM. In the case of `COC(=O)c1ccc(Nc2nc(N3CCCCC3)nc3c2CCN(c2ncccc2C(F)(F)F)CC3)cc1` [Example 387, 4-[2-Piperidin-1-yl-7-(3-trifluoromethyl-pyridin-2-yl)-6,7,8,9-tetrahydro-5H-pyrimido[4,5-d]azepin-4-ylamino]-benzoic acid methyl ester], the IC50 stood at 550 nM. The same measure, in the same setting: next, `CC(C)(O)c1ccc(Nc2nc(N3CCOCC3)nc3c2CCN(c2ncccc2C(F)(F)F)CC3)cc1` [Example 389, 2-{4-[2-Morpholin-4-yl-7-(3-trifluoromethyl-pyridin-2-yl)-6,7,8,9-tetrahydro-5H-pyrimido[4,5-d]azepin-4-ylamino]-phenyl}-propan-2-ol]: 320 nM; `FC(F)(F)c1ccc(Nc2nc(N3CCCCC3)nc3c2CCN(c2ncccc2C(F)(F)F)CC3)nc1Cl` [Example 390, (6-Chloro-5-trifluoromethyl-pyridin-2-yl)-[2-piperidin-1-yl-7-(3-trifluoromethyl-pyridin-2-yl)-6,7,8,9-tetrahydro-5H-pyrimido[4,5-d]azepin-4-yl]-amine]: 90 nM; `CC(C)(C(=O)O)c1ccc(Nc2nc(N3CCOCC3)nc3c2CCN(c2ncccc2C(F)(F)F)CC3)cc1` [Example 392, 2-Methyl-2-{4-[2-morpholin-4-yl-7-(3-trifluoromethyl-pyridin-2-yl)-6,7,8,9-tetrahydro-5H-pyrimido[4,5-d]azepin-4-ylamino]-phenyl}-propionic acid]: 1540 nM.

The target of a further test is T1, rat TRPV1. Put plainly: cell-based. Particulars: Rat IC50 (μM).
`CC1CCCCN1c1nc2c(c(Nc3ccc(C(F)(F)F)cc3)n1)CCN(c1ncccc1C(F)(F)F)CC2` (single isomer, unassigned) [Example 276, 2-(2S or 2R)-2-Methylpiperidin-1-yl]-N-[4-(trifluoromethyl)phenyl]-7-[3-(trifluoromethyl)pyridin-2-yl]-6,7,8,9-tetrahydro-5H-pyrimido[4,5-d]azepin-4-amine] showed an IC50 of […]. `CC1CCCCN1c1nc2c(c(Nc3ccc(C(F)(F)F)cc3)n1)CCN(c1ncccc1C(F)(F)F)CC2` (single isomer, unassigned) [Example 277, 2-[(2R or 2S)-2-Methylpiperidin-1-yl]-N-[4-(trifluoromethyl)phenyl]-7-[3-(trifluoromethyl)pyridin-2-yl]-6,7,8,9-tetrahydro-5H-pyrimido[4,5-d]azepin-4-amine] registered an IC50 of […]. On the same count and under the same terms, the value for `CC(C)c1nc2c(c(Nc3ccc(Br)cc3)n1)CCN(c1ncccc1C(F)(F)F)CC2` [Example 46, (4-Bromo-phenyl)-[2-isopropyl-7-(3-trifluoromethyl-pyridin-2-yl)-6,7,8,9-tetrahydro-5H-pyrimido[4,5-d]azepin-4-yl]-amine] was 0.38 µM. The same measure, in the same setting: the value for `CC(C)(C)c1ccc(Nc2nc(C(C)(C)C)nc3c2CCN(c2ncccc2C(F)(F)F)CC3)cc1` [Example 138, 2-(1,1-Dimethylethyl)-N-[4-(1,1-dimethylethyl)phenyl]-7-[3-(trifluoromethyl)pyridin-2-yl]-6,7,8,9-tetrahydro-5H-pyrimido[4,5-d]azepin-4-amine] was 0.03 µM.

The compound `Cc1nc(-c2nc3c(c(Nc4ccc(C(F)(F)F)cc4)n2)CCN(c2ncccc2C(F)(F)F)CC3)cs1` [Example 153, 2-(2-Methyl-1,3-thiazol-4-yl)-N-[4-(trifluoromethyl)phenyl]-7-[3-(trifluoromethyl)pyridin-2-yl]-6,7,8,9-tetrahydro-5H-pyrimido[4,5-d]azepin-4-amine trifluoroacetic acid salt] gave a half-inhibitory concentration (IC50) of 0.14 µM. Compound `COC(=O)c1cnc(N2CCc3nc(S(C)(=O)=O)nc(Nc4ccc(C(F)(F)F)cc4)c3CC2)c(Cl)c1` [Example 211, Methyl 5-chloro-6-[2-(methylsulfonyl)-4-{[4-(trifluoromethyl)phenyl]amino}-5,6,8,9-tetrahydro-7H-pyrimido[4,5-d]azepin-7-yl]pyridine-3-carboxylate] had an IC50 of 11.4 µM. The same measure, in the same setting: the value for `CC1CCCCN1c1nc2c(c(Nc3ccc(C(F)(F)F)cc3)n1)CCN(c1ncccc1C(F)(F)F)CC2` (stereo not shown) [Example 246, 2-(2-Methylpiperidin-1-yl)-N-[4-(trifluoromethyl)phenyl]-7-[3-(trifluoromethyl)pyridin-2-yl]-6,7,8,9-tetrahydro-5H-pyrimido[4,5-d]azepin-4-amine hydrochloride salt] was […]; that for `FC(F)(F)c1ccc(Nc2nc(NC3CCOC3)nc3c2CCN(c2ncccc2C(F)(F)F)CC3)cc1` (stereo not shown) [Example 265, N^2-(Tetrahydro-furan-3-yl)-N^4-(4-trifluoromethyl-phenyl)-7-(3-trifluoromethyl-pyridin-2-yl)-6,7,8,9-tetrahydro-5H-pyrimido[4,5-d]azepine-2,4-diamine trifluoroacetic acid salt] was 0.39 µM.

As usually defined, the IC50 is the midpoint of a concentration-inhibition curve.

Source of the values: patent US9422293B2 (priority 2006, dated 2016).
